Experiments:
Format in all cases: biochemical
[1] = system: C16-ceramide channels in the MOM of yeast mitochondria; assay: Complex IV accessibility assay, isolated yeast mitochondria
Protocol: (§1) The ability of the naturally-occurring C16-ceramide to form channels in the mitochondrial outer membranes of isolated yeast mitochondria was assessed via the complex IV accessibility assay. This assay measures the bidirectional flux of cytochrome c across the mitochondrial outer membrane (MOM) by monitoring its oxidation by complex IV of the mitochondrial inner membrane electron transport chain. The initial rate of cytochrome c oxidation when expressed as a percent of the rate measured in mitochondria with damaged outer membranes is a good measure of the permeability of the MOM to proapoptotic proteins. This method has an advantage over simply looking for the release of cytochrome c because both channel prevention and reversal by a potential inhibitor can be evaluated.
Thus, mitochondria are isolated from wild type yeast and yeast strains expressing either human Bcl-2 or Bcl-xL according to previously published methods (Lee, A. et al. (1998) “THE ROLE OF YEAST VDAC GENES ON THE PERMEABILITY OF THE MITOCHONDRIAL OUTER MEMBRANE,” J. Membr. Biol. 161:173-181). Isolated yeast mitochondria are incubated with the naturally occurring C16-ceramide and its ability to form channels is evaluated according to the complex IV accessibility assay (Siskind, L. J. et al. (2002) “CERAMIDE CHANNELS INCREASE THE PERMEABILITY OF THE MITOCHONDRIAL OUTER MEMBRANE To SMALL PROTEINS,” J. Biol. Chem. 277:26796-26803). This assay measures the CN-sensitive oxidation of exogenously-added reduced cytochrome c by cytochrome c oxidase of the inner membrane. It measures the permeability of the mitochondrial outer membrane (MOM) to cytochrome c. […] Mitochondria are incubated with test agents (e.g., C16-ceramide) for a predetermined period of time (e.g., 5-20 minutes), reduced cytochrome c is added and the absorbance is monitored at 550 nm. […]
The complex IV accessibility measures of the permeability of the MOM. The initial rate is expressed as a percentage of the rate of cytochrome c oxidation in mitochondria whose outer membranes are ruptured by hypotonic shock. […]

[2] = system: ceramide channels in the mitochondrial outer membrane (MOM); assay: Adenylate kinase release assay in isolated rat liver mitochondria; conditions: for effect of preincubation on C16-ceramide permeabilization of the MOM and adenylate kinase release: 5 min preincubation, C16-ceramide 40 μg/mL, 10 min, low concentration potentiates, higher inhibits
Protocol: The preparation yielded a mitochondrial suspension containing 10 mg of protein per mL. […] The mitochondria were then pelleted at 14,000 g for 5 min at 4° C. and the supernatant was kept on ice until assayed. […] The enzymes were added to the rest of the reaction mixture 1 min before the addition of the mitochondrial supernatant to allow a trace of ATP to be consumed. The activity of adenylate kinase was detected as an increase in absorbance at 340 nm. Since the activity of the kinase decays with time, even on ice, experiments were performed in sets and the activity of the first supernatant was assayed again at the end of the set. The values were fitted to a first order decay and all values within the set were corrected for the decay of the activity, based on the time delay before assay.
To determine the effect of sphingosine pretreatment on ceramide permeabilization of the mitochondrial outer membrane, mitochondria were incubated at room temperature in the presence of varying concentrations of sphingosine for […] before addition of ceramide and incubation for 10 min. Untreated mitochondria and mitochondria hypotonically lysed (20 μl into 1.2 ml water) served as negative and positive controls, respectively.
Experiments with C16-ceramide were performed in a similar way except as follows. The mitochondria were suspended in the above medium except that the 1 mM Tris buffer was replaced by 5 mM HEPES. To 1.0 mL of this medium at room temperature (RT) was added 17 μL of mitochondrial suspension that had been kept on ice at a concentration of 4 mg/mL. The final mitochondrial protein concentration during the experiment was 80 μg/mL. In the case of shocked mitochondria, the 1.0 mL of medium was replaced by water. Sphingosine was added, where appropriate, from a 0.25 mg/mL solution in DMSO. Typically 4-7 incubations were run in parallel. All samples were incubated for 5 min at RT. Then some samples received 0.4 mL of fatty acid depleted bovine serum albumin (BSA), 25 mg/mL, followed immediately by 20 μL of C16-ceramide dissolved in isopropanol at 2 mg/mL. After a 10-min incubation at RT, 10 μL of 4 mM PMSF was added followed by centrifugation. In these experiments 0.3 mL of mitochondrial supernatant was added to the adenylate kinase reaction mixture.

[3] = Ability of sphingolipids to form channels in membranes
Text: The present invention establishes that sphingosine is capable of directly disassembling ceramide channels, thus proving the existence of this novel anti-apoptotic regulatory step. The ability of sphingosine, sphingosine-1-phosphate ([…]) and ceramide-1-phosphate the ability to form channels was investigated.

yeast mitochondria = assay: Ceramide-induced permeabilization in yeast mitochondria
mammalian MOM = assay: Ceramide-induced permeabilization of mammalian MOM; conditions: C16-ceramide; read-out: IC50 for inhibition of C16-ceramide-induced permeabilization of mammalian MOM
[4] = system: ceramide channel in planar phospholipid membrane; assay: Electrophysiological recordings on planar phospholipid membranes; conditions: 0.15 μM protein added while stirring, voltage clamp, FIG. 16
Text: Planar phospholipid membranes were produced by the monolayer method (Montal, M. et al. (1972) “FORMATION OF BIMOLECULAR MEMBRANES FROM LIPID MONOLAYERs AND A STUDY OF THEIR ELECTRICAL PROPERTIES,” Proc. Natl. Acad. Sci. USA 69:3561-3566) as modified by Colombini, M. (1987) (“CHARACTERIZATION OF CHANNELS ISOLATED FROM PLANT MITOCHONDRIA,” Methods Enzymol. 148:465-475), across a 100-μm-diameter hole in a Saran partition. Monolayers were produced using a solution of 0.5% w/v asolectin, 0.5% w/v DiPhyPC, 0.1% w/v cholesterol in hexane. This technique produces solvent-free phospholipid membranes whose lipid composition (focusing on the polar head-groups) is similar to that found in the mitochondrial outer membrane. It differs from the natural membrane in lacking proteins.
The aqueous solutions contained 1 mM MgCl2, and 5 mM Pipes pH 6.8 with KCl varying from 0.10 M to 1.0 M. The KCl concentration on one side of the membrane, referred to as the “trans” side, was always 0.10 M, whereas the other side (the “cis” side) was adjusted as needed. The transmembrane voltage was electronically clamped and the current through the membrane was recorded. The voltage values indicated are the voltage differences across the membrane cis side minus trans side.
C2-ceramide was stirred into the aqueous solution on each side of the membrane from a solution in DMSO, generally 0.5 mg/ml. Single or multiple additions, typically […] each, yielding a final concentration of 2 μg/ml, were made to achieve a desired level of conductance. Sphingosine additions of 5 μl were made from a solution in DMSO (4 mg/mL) yielding a final concentration of 4 μg/mL.
The observation that anti-apoptotic Bcl-2 family proteins inhibit ceramide channel formation in isolated yeast and rat liver mitochondria correlates with previous reports showing inhibition of ceramide-induced apoptosis in whole cells by these proteins. Thus the results directly tie ceramide-induced mitochondrial-mediated apoptosis with the Bcl-2 family of proteins known to regulate these events. To address whether the antiapoptotic proteins act directly on ceramide channels or work by an indirect action, their affects on ceramide channels in solvent-free planar phospholipid membranes was tested. This is a defined system free of other proteins. When C16-ceramide is added to the aqueous solution bathing one side of a planar phospholipid membrane, it results in discontinuous increases in conductance under voltage-clamp conditions, the defining characteristic of channel formation in membranes. These conductance increments are the enlargement of one ceramide channel rather than the formation of multiple ceramide channels in parallel (Siskind, L. J. et al. (2003) “ENLARGEMENT AND CONTRACTURE OF C2-CERAMIDE CHANNELS,” Biophys. J. 85:1560-1575). […]

[5] = system: ceramide channels in the MOM of rat liver mitochondria; assay: Complex IV accessibility assay (cytochrome c oxidation), isolated rat liver mitochondria
Text: The amount of ceramide that needs to be added to mitochondria to achieve permeabilization of the MOM to proteins is high compared to physiological levels. However, it is not the absolute ceramide concentration in solution that is important, but rather the concentration of ceramide in the membrane. In addition, only a small percentage of the ceramide added to the solution actually inserts into the membrane. This issue was directly addressed by using radiolabeled ceramide and simultaneously measuring how much ceramide inserts into rat liver mitochondria and how much permeabilization is achieved in the MOM by measuring the accessibility of exogenously added cytochrome c. […] Levels measured in mitochondria in the early stages of apoptosis are 4 pmoles per nmole. Thus, the results are well within the physiological range. Note that after correcting for the membrane partitioning, long and short-chain ceramide have equal potency as expected from the model of the ceramide channel.
as §1
Thus, mitochondria are isolated from wild type yeast and yeast strains expressing either human Bcl-2 or Bcl-xL according to previously published methods (Lee, A. et al. (1998) “THE ROLE OF YEAST VDAC GENES ON THE PERMEABILITY OF THE MITOCHONDRIAL OUTER MEMBRANE,” J. Membr. Biol. 161:173-181). Isolated yeast mitochondria are incubated with the naturally occurring C16-ceramide and its ability to form channels is evaluated according to the complex IV accessibility assay (Siskind, L. J. et al. (2002) “CERAMIDE CHANNELS INCREASE THE PERMEABILITY OF THE MITOCHONDRIAL OUTER MEMBRANE To SMALL PROTEINS,” J. Biol. Chem. 277:26796-26803). This assay measures the CN-sensitive oxidation of exogenously-added reduced cytochrome c by cytochrome c oxidase of the inner membrane. […] Mitochondria are incubated with test agents (e.g., C16-ceramide) for a predetermined period of time (e.g., 5-20 minutes), reduced cytochrome c is added and the absorbance is monitored at 550 nm. […]

[6] = system: ceramide channels in mitochondrial outer membranes; assay: Dihydroceramide inhibition of ceramide channel formation in mitochondrial outer membranes (rate of oxidation of exogenously-added cytochrome c)
Text: The permeability was monitored by recording the rate of oxidation of exogenously-added cytochrome c. Ceramide (C2) was present at all data points except for the highest amount of dihydroceramide (DHC2) added (29 nmol).

CCCCCCCCCCCCC/C=C/[C@@H](O)[C@H](CO)NC(=O)CCCCCCCCCCCCCCC [C16-ceramide]
channel formation in the MOM of isolated wild-type yeast mitochondria ([1]; 10 min incubation, FIG. 13A): forms channels

CCCCCCCCCCCCC/C=C/[C@H](O)[C@@H](N)CO [L-threo sphingosine]
permeabilization of the MOM to adenylate kinase after removal of excess compound with BSA ([2]; 2.4 μg/mL for 5 min, then fatty acid depleted BSA, no ceramide added): no penneabilization of the MOM to adenylate kinase was observed | effect of preincubation on C16-ceramide permeabilization of the MOM and adenylate kinase release [2]: same biphasic effect | effect of preincubation on C16-ceramide permeabilization of the MOM and adenylate kinase release ([2]; listed as L-sphingosine): same results as D-sphingosine

CCCCCCCCCCCCC/C=C/[C@@H](O)[C@@H](N)COP(=O)(O)O [S-1-P, sphingosine-1-phosphate]
ability to form channels [3]: destabilized membranes

CCCCOc1cc(C(=O)NCCN(CC)CC)c2ccccc2n1 [dibucaine]
effect on ceramide C2-induced permeabilization (yeast mitochondria): inhibited | effect on ceramide C16-induced permeabilization (yeast mitochondria): somewhat potentiated | IC50 (mammalian MOM): 230 µM

CC(C)NCC(O)COc1cccc2ccccc12 (centres unmarked) [propranolol]
effect on ceramide C2-induced permeabilization (yeast mitochondria): inhibited | effect on ceramide C16-induced permeabilization (yeast mitochondria): somewhat potentiated | IC50 (mammalian MOM): 410 µM

Bcl-2: full-length human Bcl-2 expressed in yeast cells
sensitivity to C16-ceramide channel formation of mitochondria from yeast expressing the protein ([1]; full-length human Bcl-2 expressed in yeast vs empty vector control): resistant to C16-ceramide channel formation

FL Bcl-xL: purified recombinant full-length anti-apoptotic protein Bcl-xL
effect on C16-ceramide channels (prevention and reversal) in MOM of isolated yeast mitochondria ([1]; 20 μg protein, 20 μM C16-ceramide, 10 min each, FIG. 13D-F): prevention and reversal of the C16-ceramide channels was observed | effect on conductance of a stable C16-ceramide channel [4]: dramatic decrease in the ceramide conductance to baseline | level at which disassembly of preformed C16-ceramide channels was observed ([5]; C16-ceramide before protein (reversal), biphasic, FIG. 15A): ≤ 5 µg | level giving almost complete prevention of C16-ceramide channel formation ([5]; protein 10 min before 20 μM C16-ceramide 10 min, FIG. 15A): 1.5 µg

ceramide-1-phosphate [C-1-P]
ability to form channels [3]: without reproducible effect

dihydroceramide
permeabilization of the MOM to cytochrome c ([5]; inserts into mitochondrial membranes to the same degree as ceramide): lack of effect | effect on already formed ceramide channels [6]: does not induce channel disassembly | level that inhibits ceramide channel formation, relative to the ceramide level ([6]; found in liposomes and isolated mitochondria, FIG. 11 with C2-ceramide): 10%

From patent US7897401B2, “Control of apoptosis by controlling the propensity of ceramide channel formation” (University of Maryland, College Park, priority 2005, dated 2011)
